Results published in ChEMBL document CHEMBL4118240, “'Tethering' fragment-based drug discovery to identify inhibitors of the essential respiratory membrane protein type II NADH dehydrogenase” (Bioorg Med Chem Lett, 2018).

Assays:
[1] = test system: Caldalkalibacillus thermarum TA2.A1; assay: Selectivity ratio of IC50 for wild type Caldalkalibacillus thermarum TA2.A1 NDH2 to IC50 for C-terminal His-tagged Caldalkalibacillus thermarum TA2.A1 NDH2 R382C mutant
[2] = test system: Caldalkalibacillus thermarum TA2.A1; assay: Selectivity ratio of IC50 for wild type Caldalkalibacillus thermarum TA2.A1 NDH2 to IC50 for C-terminal His-tagged Caldalkalibacillus thermarum TA2.A1 NDH2 R347C mutant
[3] = Inhibition of C-terminal His-tagged Caldalkalibacillus thermarum TA2.A1 NDH2 R382C mutant preincubated for 1 hr followed by NADH addition measured after 8 mins
[4] = Inhibition of wild type Caldalkalibacillus thermarum TA2.A1 NDH2 preincubated for 1 hr followed by NADH addition measured after 8 mins
[5] = Inhibition of C-terminal His-tagged Caldalkalibacillus thermarum TA2.A1 NDH2 R347C mutant preincubated for 1 hr followed by NADH addition measured after 8 mins

SMILES | Ratio IC50 [1] | Ratio IC50 [2] | IC50 [3] [µM] | IC50 [4] [µM] | IC50 [5] [µM]
NCCSSCCNC(=O)C1CCN(C(=O)c2ccc3ncsc3c2)CC1 | 3.7 | 3.7 | 18.6 | 52 | 9.9
CN(C)CCSSCCNC(=O)CCC(=O)c1ccccn1 | 9.3 | 9.3 | 3.2 | 42.2 | 5.9
CN(C)CCSSCCNC(=O)c1ccc(C#Cc2ccccc2)o1 | 0.9 | 0.9 | 6.3 | 5.6 | 5.9
CN(C)CCSSCCNC(=O)[C@H]1CCCN(C(=O)c2cc3cccc(O)c3cc2O)C1 | 0.6 | 0.6 | 13 | 11.3 | 21.9
CN(C)CCSSCCNC(=O)c1c(N)cccc1Cl | 0.8 | 0.8 | 33.5 | 38.1 | 60.8
CN1CCN(CCCN2c3ccccc3Sc3ccc(C(F)(F)F)cc32)CC1 [TRIFLUOPERAZINE] |  |  |  | 50 | 
CN(C)CCSSCCCNC(=O)c1cccc(N(C)C)c1 | 2.8 | 2.8 | 11.5 | 36 | 14.5
CN(C)CCSSCCNC(=O)C(CC(=O)c1ccccc1)c1cc2ccccc2n1C (stereo unspecified) | 1.3 | 1.3 | 7 | 12.8 | 12.9
CN(C)CCSSCCn1cc(-c2ccc(N(C)C)cc2)nn1 | 3.6 | 3.6 | 24 | 147 | 56.8
CN(C)CCSSCCNC(=O)[C@H]1CCCN(C(=O)c2ccc(-n3cccc3)cc2)C1 | 3 | 3 | 26.9 | 80.3 | 26.5
CN(C)CCSSCCNC(=O)c1cccc2cc[nH]c12 | 0.9 | 0.9 | 32.6 | 61.9 | 110
